Target: T1, DAPK2 (Homo sapiens, UniProt Q9UIK4)
T1 construct: purchased Thermo Fisher Scientific (Life Technologies) SelectScreen
Test: SelectScreen LanthaScreen
Assay type: binding
Settings: read-out: % displacement
Method in brief: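 Percent values come from Thermo SelectScreen profiling of NU5455, combining activity and binding assays. CSF1R was run in Z'LYTE format at Km app ATP, and CAMK1 in Adapta format with ATP listed at 10.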

T1 sequence (Q9UIK4 whole entry): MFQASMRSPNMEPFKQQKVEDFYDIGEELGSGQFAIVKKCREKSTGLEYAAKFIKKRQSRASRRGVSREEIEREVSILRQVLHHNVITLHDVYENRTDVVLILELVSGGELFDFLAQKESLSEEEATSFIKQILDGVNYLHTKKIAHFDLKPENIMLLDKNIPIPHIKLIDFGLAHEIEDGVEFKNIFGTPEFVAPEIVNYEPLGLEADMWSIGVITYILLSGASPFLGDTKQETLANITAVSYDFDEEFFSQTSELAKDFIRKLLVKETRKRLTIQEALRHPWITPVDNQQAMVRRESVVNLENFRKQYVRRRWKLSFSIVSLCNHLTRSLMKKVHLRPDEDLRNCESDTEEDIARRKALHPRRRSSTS

Work on `CN(C(=O)CN1CCOCC1)c1ccc2sc3c(-c4cccc5c(=O)cc(N6CC7CCC(C6)O7)oc45)cccc3c2c1` [NU5455] yielded an inhibition at 1 µM of 2.9%.

From paper PMC6934184, “Selective DNA-PKcs inhibition extends the therapeutic index of localized radiotherapy and chemotherapy” (The Journal of Clinical Investigation, 2019)
